The values that follow come from patent US9486466B2, “Veliparib in combination with carboplatin for the treatment of triple negative breast cancer” (AbbVie Inc., priority 2013, dated 2016).

For this experiment, the system named is early-stage triple negative breast cancer. In words: Phase 2 randomized open label study of veliparib and carboplatin with standard neoadjuvant chemotherapy; pathologic complete response. In kind it is in vivo, human. The source says:
Pathological Complete Response (pCR) is the absence of any residual invasive cancer on hematoxylin and eosin evaluation of the resected breast specimen and any resected lymph node tissue following completion of neoadjuvant systemic therapy.
This example is a Phase 2, interventional, randomized, open label study evaluating the safety and efficacy of veliparib and carboplatin administered concurrently with standard chemotherapy in subjects with early-stage triple negative breast cancer.
Patients received 50 mg po bid during the 12 weekly treatment cycles post-randomization and carboplatin: AUC 6 IV every three weeks for […] during the 12 weekly treatment cycles post-randomization with standard chemotherapy or alternatively standard chemotherapy alone. Standard chemotherapy was paclitaxel: 80 mg/m^2 IV during the 12 weekly treatment cycles post randomization; doxorubicin: 60 mg/m^2 IV after completion of the 12 weekly treatment cycles and prior to surgery for weeks 13-16; cyclophosphamide: 600 mg/m^2 IV after completion of the 12 weekly treatment cycles and prior to surgery for weeks 13-16.
Determine whether adding veliparib and carboplatin to standard neoadjuvant medications increases the probability of pathologic complete response (pCR) over standard neoadjuvant chemotherapy for triple negative breast cancer. […]

With `C[C@]1(c2nc3c(C(N)=O)cccc3[nH]2)CCCN1` [Veliparib arm, 2-[(2R)-2-methylpyrrolidin-2-yl]-1H-benzimidazole-4-carboxamide], the pCR % (patients with triple negative breast cancer, neoadjuvant therapy followed by surgery, veliparib arm: veliparib 50 mg po bid + carboplatin AUC 6 IV during the 12 weekly cycles, added to standard chemotherapy (paclitaxel, then doxorubicin/cyclophosphamide), control arm: standard chemotherapy alone) is 56% (n = 39). In addition, the “effect on number of women achieving pCR status” value (veliparib and carboplatin added to standard of care, neoadjuvant setting, early triple negative breast cancer) is “increases the number of women that achieve pCR status”.
